Data published in patent US11753407B2, “Compounds for treating spinal muscular atrophy” (PTC Therapeutics, Inc., priority 2012, dated 2023).

Tests used:
[1] = tested on: Smn protein in SMA patient fibroblast cells (GM03813); experiment: Smn protein assay in cultured cells (SMN HTRF); format: cell-based, human; settings: SMA patient fibroblast cells, 48 hours; for EC1.5x for Smn protein expression: 7-point concentration curve, SMN HTRF, concentration producing 1.5 times Smn protein vs DMSO vehicle control; for maximum fold (Fold) increase of Smn protein: 7-point concentration data, fold relative to vehicle control
Procedure, shortened: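 SMA patient fibroblasts (5,000 cells/well, DMEM-10% FBS) were treated for 48 h at 37 °C with a 7-point, 3.16-fold dilution series in triplicate. RIPA lysates were probed by HTRF (anti-SMN d2/kryptate, overnight, room temperature), reading 665/620 nm. EC1.5× is the concentration giving 1.5-fold Smn over DMSO vehicle.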

[2] = tested on: SMN2 minigene mRNA (SMN2-A minigene) in HEK293H cells; experiment: SMN2 minigene mRNA splicing RT-qPCR assay in cultured cells; format: cell-based, human; settings: Homo sapiens, HEK293-H; concentration increasing full length SMN2 mRNA 1.5-fold relative to vehicle-treated cells; HEK293H cells with SMN2-A minigene, 24 hours, 7-point concentration data; read-out: EC1.5x for production of full length SMN2 mRNA
Procedure, shortened: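 HEK293H cells stably carrying the SMN2-A minigene were treated for 24 h at 37 °C with a 7-point, 3.16-fold dilution series of compound. Multiplex RT-qPCR measured exon 7-containing minigene FL mRNA against GAPDH, expressed relative to vehicle by modified ΔΔCt; the EC1.5× is the concentration giving a 1.5-fold increase.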

| SMILES | EC1.5x for Smn protein expression [1] | maximum fold (Fold) increase of Smn protein [1] | EC (1.5-fold increase) [2] |
| --- | --- | --- | --- |
| Cc1cn2cc(-c3cc(=O)n4cc(N5CCN(C)CC5)ccc4n3)cc(C#N)c2n1 [Compound 807, 2-methyl-6-[7-(4-methylpiperazin-1-yl)-4-oxo-4H-pyrido[1,2-a]pyrimidin-2-yl]imidazo[1,2-a]pyridine-8-carbonitrile] | **** (an EC1.5x≤0.3 μM is indicated by four stars (****)) | ***** (a fold increase >1.65 is indicated by five stars (*****)) | < 0.1 µM |
| Cc1cn2cc(-c3cc(=O)n4cc(N5CCN(C)CC5)ccc4n3)cc(C)c2n1 [Compound 808, 2-(2,8-dimethylimidazo[1,2-a]pyridin-6-yl)-7-(4-methylpiperazin-1-yl)-4H-pyrido[1,2-a]pyrimidin-4-one] | **** (an EC1.5x≤0.3 μM is indicated by four stars (****)) | ***** (a fold increase >1.65 is indicated by five stars (*****)) | < 0.1 µM |
| Cc1cn2cc(-c3cc(=O)n4cc(N5CCNC6(CC6)C5)ccc4n3)cc(C)c2n1 [Compound 809, 7-(4,7-diazaspiro[2.5]oct-7-yl)-2-(2,8-dimethylimidazo[1,2-a]pyridin-6-yl)-4H-pyrido[1,2-a]pyrimidin-4-one] | **** (an EC1.5x≤0.3 μM is indicated by four stars (****)) | ***** (a fold increase >1.65 is indicated by five stars (*****)) | < 0.1 µM |
| Cc1cn2cc(-c3cc(=O)n4cc(C5CCN(C)CC5)ccc4n3)cc(F)c2n1 [Compound 810, 2-(8-fluoro-2-methylimidazo[1,2-a]pyridin-6-yl)-7-(1-methylpiperidin-4-yl)-4H-pyrido[1,2-a]pyrimidin-4-one] | **** (an EC1.5x≤0.3 μM is indicated by four stars (****)) | ***** (a fold increase >1.65 is indicated by five stars (*****)) | < 0.1 µM |
| Cc1cn2cc(-c3cc(=O)n4cc(C5(O)CCNCC5)ccc4n3)cc(F)c2n1 [Compound 811, 2-(8-fluoro-2-methylimidazo[1,2-a]pyridin-6-yl)-7-(4-hydroxypiperidin-4-yl)-4H-pyrido[1,2-a]pyrimidin-4-one] | *** (an EC1.5× between >0.3 μM and ≤1 μM is indicated by three stars (***)) | ***** (a fold increase >1.65 is indicated by five stars (*****)) | 0.3 to 1 µM |
| CCc1nc(C)cn2nc(-c3cc(=O)n4cc(N5CCN6CCC[C@H]6C5)ccc4n3)cc12 [Compound 812, 2-(4-ethyl-6-methylpyrazolo[1,5-a]pyrazin-2-yl)-7-[(8aS)-hexahydropyrrolo[1,2-a]pyrazin-2(1H)-yl]-4H-pyrido[1,2-a]pyrimidin-4-one] | **** (an EC1.5x≤0.3 μM is indicated by four stars (****)) | ***** (a fold increase >1.65 is indicated by five stars (*****)) | < 0.1 µM |
| CCc1nc(C)cn2nc(-c3cc(=O)n4cc(N5CCN6CCC[C@@H]6C5)ccc4n3)cc12 [Compound 813, 2-(4-ethyl-6-methylpyrazolo[1,5-a]pyrazin-2-yl)-7-[(8aR)-hexahydropyrrolo[1,2-a]pyrazin-2(1H)-yl]-4H-pyrido[1,2-a]pyrimidin-4-one] | **** (an EC1.5x≤0.3 μM is indicated by four stars (****)) | ***** (a fold increase >1.65 is indicated by five stars (*****)) | < 0.1 µM |
| CCc1nc(C)cn2nc(-c3cc(=O)n4cc(N5CC[C@@H](N(C)C)C5)ccc4n3)cc12 [Compound 814, 7-[(3R)-3-(dimethylamino)pyrrolidin-1-yl]-2-(4-ethyl-6-methylpyrazolo[1,5-a]pyrazin-2-yl)-4H-pyrido[1,2-a]pyrimidin-4-one] | **** (an EC1.5x≤0.3 μM is indicated by four stars (****)) | ***** (a fold increase >1.65 is indicated by five stars (*****)) | < 0.1 µM |
| CCc1nc(C)cn2nc(-c3cc(=O)n4cc(N5CC[C@H](N(C)C)C5)ccc4n3)cc12 [Compound 815, 7-[(3S)-3-(dimethylamino)pyrrolidin-1-yl]-2-(4-ethyl-6-methylpyrazolo[1,5-a]pyrazin-2-yl)-4H-pyrido[1,2-a]pyrimidin-4-one] | **** (an EC1.5x≤0.3 μM is indicated by four stars (****)) | ***** (a fold increase >1.65 is indicated by five stars (*****)) | < 0.1 µM |
| Cc1cn2cc(-c3cc(=O)n4cc(N5CCN6CCC[C@@]6(C)C5)ccc4n3)cc(F)c2n1 [Compound 816, 2-(8-fluoro-2-methylimidazo[1,2-a]pyridin-6-yl)-7-[(8aS)-8a-methylhexahydropyrrolo[1,2-a]pyrazin-2(1H)-yl]-4H-pyrido[1,2-a]pyrimidin-4-one] | **** (an EC1.5x≤0.3 μM is indicated by four stars (****)) | **** (a fold increase between >1.5 and ≤1.65 is indicated by four stars (****)) | < 0.1 µM |
| CCc1nc(C)cn2nc(-c3cc(=O)n4cc(N5CCN(CC)CC5)cc(C)c4n3)cc12 [Compound 817, 2-(4-ethyl-6-methylpyrazolo[1,5-a]pyrazin-2-yl)-7-(4-ethylpiperazin-1-yl)-9-methyl-4H-pyrido[1,2-a]pyrimidin-4-one] | **** (an EC1.5x≤0.3 μM is indicated by four stars (****)) | ***** (a fold increase >1.65 is indicated by five stars (*****)) | < 0.1 µM |
| CCc1nc(C)cn2nc(-c3cc(=O)n4cc(N5CCN6CCC[C@H]6C5)cc(C)c4n3)cc12 [Compound 818, 2-(4-ethyl-6-methylpyrazolo[1,5-a]pyrazin-2-yl)-7-[(8aS)-hexahydropyrrolo[1,2-a]pyrazin-2(1H)-yl]-9-methyl-4H-pyrido[1,2-a]pyrimidin-4-one] | *** (an EC1.5× between >0.3 μM and ≤1 μM is indicated by three stars (***)) | ***** (a fold increase >1.65 is indicated by five stars (*****)) | 0.1 to 0.3 µM |
| CCN1CCN(c2ccc3nc(-c4cc(C)c5nc(C)cn5c4)cc(=O)n3c2)CC1 [Compound 819, 2-(2,8-dimethylimidazo[1,2-a]pyridin-6-yl)-7-(4-ethylpiperazin-1-yl)-4H-pyrido[1,2-a]pyrimidin-4-one] | **** (an EC1.5x≤0.3 μM is indicated by four stars (****)) | ***** (a fold increase >1.65 is indicated by five stars (*****)) | < 0.1 µM |
| Cc1cn2cc(-c3cc(=O)n4cc(N5CCN6CCC[C@H]6C5)ccc4n3)cc(C)c2n1 [Compound 820, 2-(2,8-dimethylimidazo[1,2-a]pyridin-6-yl)-7-[(8aS)-hexahydropyrrolo[1,2-a]pyrazin-2(1H)-yl]-4H-pyrido[1,2-a]pyrimidin-4-one] | **** (an EC1.5x≤0.3 μM is indicated by four stars (****)) | ***** (a fold increase >1.65 is indicated by five stars (*****)) | < 0.1 µM |
| Cc1cn2cc(-c3cc(=O)n4cc(N5CCN6CCCC6(C)C5)ccc4n3)cc(C)c2n1 (centres unmarked) [Compound 821, 2-(2,8-dimethylimidazo[1,2-a]pyridin-6-yl)-7-(8a-methylhexahydropyrrolo[1,2-a]pyrazin-2(1H)-yl)-4H-pyrido[1,2-a]pyrimidin-4-one] | **** (an EC1.5x≤0.3 μM is indicated by four stars (****)) | ***** (a fold increase >1.65 is indicated by five stars (*****)) | < 0.1 µM |
| CCc1nc(C)cn2nc(-c3cc(=O)n4cc(N5CC[C@@H](N(C)C)C5)cc(C)c4n3)cc12 [Compound 822, 7-[(3R)-3-(dimethylamino)pyrrolidin-1-yl]-2-(4-ethyl-6-methylpyrazolo[1,5-a]pyrazin-2-yl)-9-methyl-4H-pyrido[1,2-a]pyrimidin-4-one] | *** (an EC1.5× between >0.3 μM and ≤1 μM is indicated by three stars (***)) | **** (a fold increase between >1.5 and ≤1.65 is indicated by four stars (****)) | 0.1 to 0.3 µM |
| CCc1nc(C)cn2nc(-c3cc(=O)n4cc(NCCN5CCOCC5)ccc4n3)cc12 [Compound 823, 2-(4-ethyl-6-methylpyrazolo[1,5-a]pyrazin-2-yl)-7-{[2-(morpholin-4-yl)ethyl]amino}-4H-pyrido[1,2-a]pyrimidin-4-one] | – | ** (a fold increase between >1.2 and ≤1.35 is indicated by two stars (**)) | 3 to 30 µM |
| CCc1nc(C)cn2nc(-c3cc(=O)n4cc(NCCN(C)C)ccc4n3)cc12 [Compound 824, 7-{[2-(dimethylamino)ethyl]amino}-2-(4-ethyl-6-methylpyrazolo[1,5-a]pyrazin-2-yl)-4H-pyrido[1,2-a]pyrimidin-4-one] | * (An EC1.5× for Smn protein expression between >3 μM and ≤10 μM is indicated by one star (*)) | **** (a fold increase between >1.5 and ≤1.65 is indicated by four stars (****)) | 0.3 to 1 µM |
